Values of other authors as cited in US20060052322A1, “Combination treatment of cancer with elicitor of gene product expression and gene-product targeting agent” (INTROGEN THERAPEUTICS, INC., priority 2004, published 2006).
Where a name gives a salt, the structure may show the parent alone. Read-outs that look alike come from different tables or passages of the source. Starred links: 1 amine or outer side, 2 acyl side, 3 side chain; linkers in the order of their positions; H or OH if unused. Positions of bridges follow the written chain, without caps; N, C: chain ends. Non-standard residues stand in square brackets, D forms with d. Residues, ends and D or L forms follow the SMILES beside them. Chains are numbered I, II in the order given. Actinocin(9to1) = Cc1c2oc3c(C)ccc(C(=O)[*:1])c3nc-2c(C(=O)[*:2])c(N)c1=O; NMeV = CN[C@H](C(=O)O)C(C)C; Sar = CNCC(=O)O

Experiments:
[1] = share of dose

Cc1c2oc3c(C)ccc(C(=O)N[C@@H]4C(=O)N[C@H](C(C)C)C(=O)N5CCC[C@H]5C(=O)N(C)CC(=O)N(C)[C@@H](C(C)C)C(=O)O[C@@H]4C)c3nc-2c(C(=O)N[C@@H]2C(=O)N[C@H](C(C)C)C(=O)N3CCC[C@H]3C(=O)N(C)CC(=O)N(C)[C@@H](C(C)C)C(=O)O[C@@H]2C)c(N)c1=O [Actinomycin D] (I: T[dV]P[Sar][NMeV] / II: T[dV]P[Sar][NMeV]; ester I:1-I:C, II:1-II:C; linker I:N-II:N via Actinocin(9to1))
excreted/recovered in the urine [1]: 10% | secreted/excreted into the bile [1]: Half

CC[C@@]1(O)C(=O)OCc2c1cc1n(c2=O)Cc2cc3ccccc3nc2-1 [Camptothecin]
storage stability (2-8° C., dry, airtight, light-resistant environment): at least two years

COc1cccc2c1C(=O)c1c(O)c3c(c(O)c1C2=O)C[C@@](O)(C(C)=O)C[C@@H]3O[C@H]1C[C@H](N)[C@H](O)[C@H](C)O1 [Daunorubicin, 5,12-Naphthacenedione, (8S-cis)-8-acetyl-10-[(3-amino-2,3,6-trideoxy-a-L-lyxo-hexanopyranosyl)oxy]-7,8,9,10-tetrahydro-6,8,11-trihydroxy-10-methoxy-, hydrochloride]
secreted/excreted into the bile [1]: ~40%

COc1cccc2c1C(=O)c1c(O)c3c(c(O)c1C2=O)C[C@@](O)(C(=O)CO)C[C@@H]3O[C@H]1C[C@H](N)[C@H](O)[C@H](C)O1 [Doxorubicin, 5,12-Naphthacenedione, (8s-cis)-10-[(3-amino-2,3,6-trideoxy-a-L-lyxo-hexopyranosyl)oxy]-7,8,9,10-tetrahydro-6,8,11-trihydroxy-8-(hydroxyacetyl)-1-methoxy-hydrochloride]
excreted/recovered in the urine [1]: a few percent

O=NN(CCCl)C(=O)NC1CCCCC1 [Lomustine, 1-(2-chloro-ethyl)-3-cyclohexyl-1 nitrosourea]
solubility (absolute alcohol): 70 mg per ml | solubility (water): < 0.05 mg per ml

CO[C@@]12[C@H](COC(N)=O)C3=C(C(=O)C(C)=C(N)C3=O)N1C[C@@H]1N[C@@H]12 [Mitomycin]
excreted/recovered in the urine [1]: Approximately 10%

CC[C@]1(O)C[C@@H]2CN(CCc3c([nH]c4ccccc34)[C@@](C(=O)OC)(c3cc4c(cc3OC)N(C)[C@H]3[C@@](O)(C(=O)OC)[C@H](OC(C)=O)[C@]5(CC)C=CCN6CC[C@]43[C@@H]65)C2)C1 [Vinblastine]
excreted/recovered in the urine [1]: Approximately 15%
